Article PMC5396265 (Angewandte Chemie (International Ed. in English), 2017)

Target: SPM-1 (São Paulo metallo-β-lactamase; SPM-1* for 19F-labelled variants) (Pseudomonas aeruginosa, UniProt Q8G9Q0, Y58C)
Conditions: Cys58 labelled with CH2COCF3 (BTFA); meropenem up to 400 uM, 40 uM protein, 50 mM Tris pH 7.5, 9:1 H2O/D2O; product formed in situ; presence of this pair in Table S3 not seen

SPM-1 (São Paulo metallo-β-lactamase; SPM-1* for 19F-labelled variants), sequence (Q8G9Q0 29-276 Y58C): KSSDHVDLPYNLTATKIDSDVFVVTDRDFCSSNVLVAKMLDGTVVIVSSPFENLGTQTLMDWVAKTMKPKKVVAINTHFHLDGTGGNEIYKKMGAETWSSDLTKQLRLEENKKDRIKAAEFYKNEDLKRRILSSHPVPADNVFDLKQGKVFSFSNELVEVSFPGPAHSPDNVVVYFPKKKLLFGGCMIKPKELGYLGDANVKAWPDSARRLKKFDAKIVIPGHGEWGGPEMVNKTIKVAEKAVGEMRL

`CC(O)C(C(=O)O)C1NC(C(=O)O)=C(SC2CNC(C(=O)N(C)C)C2)C1C` (stereo not shown) [hydrolyzed meropenem] was tested. Which Kd did it give?
Its Kd is 100 ± 10 µM.
